Assay results published in patent US20080312160A1, “METHOD OF TREATING ENTERITIS, […], AND DIARRHEA FROM C. DIFFICILE WITH AN A2A ADENOSINE RECEPTOR AGONIST” (priority 2007, published 2008).

How the values were obtained:
[1] = test system: Clostridium difficile toxin A-induced TNF-α production; test: Quantification of TNF-α by ELISA in ileal tissue; format: in vivo, mice; conditions: ATL 313 + TxA vs TxA only
Protocol: (§1) Mice were fasted overnight, but allowed access to water, and then anesthetized with ketamine and xylazine (60 and 5 mg/Kg intramuscularly, respectively). Through a midline laparotomy, one 4-cm ileal loop was ligated and injected with either 0.1 ml of PBS pH 7.4 (control) or buffer containing TxA (1-10 μg). The abdomen was closed, and the animals were allowed to regain consciousness. Three hours after administration of TxA, mice were sacrificed and the intestinal loops were removed. The loop length, weight, and fluid volume were recorded. A portion of the loop was frozen at −70° C. for measurement of myeloperoxidase (MPO) and ADA activities and TNF-α concentration. The remaining tissue was fixed in 10% formalin and embedded in paraffin, and sections were stained with hematoxylin and eosin for histological grading of ileal inflammation. Some mice were injected with ATL 313 ([…] final concentration) immediately followed by PBS or TxA (5 μg); another group was injected with ZM241385 (5 nM), the selective A2A AR antagonist, immediately followed by PBS or ATL 313 (5 nM)+TxA (5 μg) in the ileal loop. […]
Ileal tissue was harvested from animals in order to measure TNF-α concentration by enzyme-linked immunosorbent assay (ELISA). The results are expressed as pg/mL of TNF-α.

[2] = test system: murine ileal loops injected with Clostridium difficile toxin A (TxA); test: TxA-induced enteritis in ligated murine ileal loops: loop weight and secretion volume; format: in vivo, mice
Protocol: For this study, 174 male Swiss mice, 25-30 g body weight, from the animal colony of the Federal University of Ceara were used. The animals received water and food ad libitum.
(§2) Mice were fasted overnight, but allowed access to water, and then anesthetized with ketamine and xylazine (60 and 5 mg/Kg intramuscularly, respectively). Through a midline laparotomy, one 4-cm ileal loop was ligated and injected with either 0.1 ml of PBS pH 7.4 (control) or buffer containing TxA (1-10 μg). The abdomen was closed, and the animals were allowed to regain consciousness. Three hours after administration of TxA, mice were sacrificed and the intestinal loops were removed. The loop length, weight, and fluid volume were recorded. A portion of the loop was frozen at −70° C. for measurement of myeloperoxidase (MPO) and ADA activities and TNF-α concentration. The remaining tissue was fixed in 10% formalin and embedded in paraffin, and sections were stained with hematoxylin and eosin for histological grading of ileal inflammation. Some mice were injected with ATL 313 ([…] final concentration) immediately followed by PBS or TxA (5 μg); another group was injected with ZM241385 (5 nM), the selective A2A AR antagonist, immediately followed by PBS or ATL 313 (5 nM)+TxA (5 μg) in the ileal loop. In another experiment, TxA (5 μg) was injected into the ileal loop, the abdomen was closed, and, 30 min later, the abdomen was reopened and ATL 313 (5 nM) administered.

[3] = test system: C. difficile toxin A-induced inflammation and secretion in rabbit ileal loops; format: in vivo, New Zealand white rabbits; conditions: ATL 313 100 nM with alanyl-glutamine 25 mM; 5 hours
Protocol: Materials and Methods: New Zealand white rabbits weighing about 2 kg are fasted overnight. Under anesthesia with ketamine (60-80 mg/kg) and xylazine (5-10 mg/kg) administered intramuscularly, a midline abdominal incision is performed to expose the small bowel. After the ileum is flushed, four-cm loops are ligated using double ties with a 1 cm interval between loops. Each of the control loops is injected intraluminally with 1 mL solution of PBS with either C. difficile toxin A (toxin A) (Techlab, Blacksburg, Va.) at 10 μg/mL. Loops from another set of rabbits are treated with the adenosine A2A agonists, JMR 193 (ATL 193) (10 nM, 100 nM, or 1 uM doses) or ATL 146e ([…], 100 nM, 1 uM doses) immediately before the enterotoxin is administered. In addition a rabbit is treated with A2A agonist, ATL 313 (100 nM), alone and another rabbit treated with ATL 313 with alanyl-glutamine (25 mM). After 5 hours of incubation, the ligated small intestinal loops are removed. The length of each ligated ileal segment is measured and intraluminal fluid was quantified. Volume to length ratio, V/L (mL/cm), per loop is calculated. Samples of intestinal stained with hematoxylin-eosin and graded from 0 (none) to 4 (worst) based on the degree of mucosal disruption, increase in cellularity and intensity of vascular congestion.

[4] = test system: Clostridium difficile toxin A (TxA)-induced cell death; test: Cell death in intestinal sections (TUNEL method); format: in vivo, mice; conditions: ATL 313 + TxA
Protocol: as §2, with “administered. […]” for “administered.”

[5] = test system: Clostridium difficile toxin A (TxA)-induced histological alterations; test: Histological grading of ileal inflammation, murine ileal loops; format: in vivo, mice; conditions: for median injury score: median(range)
Protocol: as §2
The severity of inflammation was scored in coded slides by a pathologist on a scale of 1 (mild) to 3 (severe) for epithelial damage, edema, and neutrophil infiltration.

[6] = test system: Clostridium difficile toxin A-induced MPO activity; test: MPO assay in ileal tissue (neutrophil accumulation); format: in vivo, mice
Protocol: as §1
The extent of neutrophil accumulation in ileal tissue was estimated by measuring MPO activity assay. […] MPO activity in the resuspended pellet was assayed by measuring the change in absorbance at 450 nm using o-dianisidine dihydrochloride and 1% hydrogen peroxide. […]

[7] = test system: Clostridium difficile toxin A-induced ADA activity; test: ADA activity in ileal tissue and ileal secretion; format: in vivo, mice; conditions: ATL 313 in TxA-challenged animals
Protocol: Mice were fasted overnight, but allowed access to water, and then anesthetized with ketamine and xylazine (60 and 5 mg/Kg intramuscularly, respectively). Through a midline laparotomy, one 4-cm ileal loop was ligated and injected with either 0.1 ml of PBS pH 7.4 (control) or buffer containing TxA (1-10 μg). The abdomen was closed, and the animals were allowed to regain consciousness. Three hours after administration of TxA, mice were sacrificed and the intestinal loops were removed. The loop length, weight, and fluid volume were recorded. A portion of the loop was frozen at −70° C. for measurement of myeloperoxidase (MPO) and ADA activities and TNF-α concentration. […]
The ADA assay is based on the measurement of ammonia produced during the deamination of adenosine by the method of Giusti (1974. Adenosine deaminase, p. 1092-1099. In H. U. Bergmeyer (Ed.), Methods of Enzymatic Analysis, vol. 2. Academic Press Inc., New York), with slight modifications. […] Following the addition of 600 μl of sodium hypochloride (11 mM) in 125 mM NaOH all tubes were again incubated at 37° C. for 30 min and read at 628 nm. The enzyme activity in the tissue and in the ileum contents was expressed as μmols of ammonium formed/mg of protein/hour and as μmols of ammonium formed/hour, respectively.

[8] = ATL 313 5 nM alone, absence of TxA
[9] = ATL 313 5 nM in loop immediately followed by TxA 5 μg, 3 h, vs TxA alone

In the case of `COC(=O)N1CCC(CC#Cc2nc(N)c3ncn(C4OC(C(=O)NC5CC5)C(O)C4O)c3n2)CC1` (stereo not shown) [ATL 313, 4-{3-[6-Amino-9-(5-cyclopropylcarbamoyl-3,4-dihydroxy-tetrahydro-furan-2-yl)-9H-purin-2-yl]-prop-2-ynyl}-piperidine-1-carboxylic acid methyl ester], the “TNF-α production in ileal tissue” value [1] is reported as “significantly reduced (P<0.05)”, the “secretion volume/ileal loop length ratio” value [2, 8] is reported as “did not alter” and the “weight/ileal loop length ratio” value [2, 8] is reported as “did not alter”. For the same molecule, the “weight/ileal loop length ratio” value ([2]; ATL 313 5 nM given 30 min after TxA 5 μg) was 28.3 ± 1.4 mg/cm, the “secretion volume/ileal loop length ratio” value [2, 9] was “significantly (P<0.05) reduced” and the “weight/ileal loop length ratio” value [2, 9] was “significantly (P<0.05) reduced”. For the same molecule, the “toxin A-induced inflammation” value [3] was “improved inflammation”, the “toxin A-induced secretion (volume to length ratio)” value [3] was “dramatically improved secretion” and the mucosal cell death [4] was “reduced number for cell death similar to the level of PBS control”. For the same molecule, the histological injury score ([5]; ATL 313 30 min after injection of TxA 5 μg) was 1(0-2), the median injury score ([5]; ATL 313 + TxA 5 μg/loop) was 1(0-2) and the median injury score ([5]; compound alone, no TxA) was 0(0-0). The “MPO activity in ileal tissue” value ([6]; ATL 313 5 nM alone, PBS=1.6±0.6) was 2.1±0.2 U/mg, the “MPO activity in ileal tissue” value ([6]; ATL 313 5 nM then TxA 5 μg) was 1.0±0.6 U/mg and the “ADA activity in ileal secretion” value [7] was “significantly reduced (P<0.05)”. For the same molecule, the “ADA activity in ileal tissue” value [7] was “significantly reduced (P<0.05)”.
